According to patent publication US10869483B2, “Coniothyrium minitans for use against moss growth” (Bayer CropScience Aktiengesellschaft, priority 2015, dated 2020):

Tested on: haircup moss growth
Assay: Drench test (greenhouse, moss growth on soil surface)
Format: in vivo
Conditions: 6.25 kg/ha = 20 μL/mL, 20 mL drench onto soil, 19 weeks, 15° C., 0% = untreated control, 100% = no moss growth
Method: The test was carried out under greenhouse conditions.
120 mL of a mixture of steamed field soil and sand (1:1) was filled into transparent cylindrical vessels 5.5 cm in size.
The test formulation, the product CONTANS®, comprising 1×10^9 spores of the strain Coniothyrium minitans CON/M/91-08, was dissolved in water and diluted with water to the desired concentrations. 20 mL of the made-up solutions were pipetted onto the soil in the vessels.
The vessels were covered with a transparent lid.
The vessels remained in the greenhouse for the next 19 weeks, at 15° C. and at natural light conditions. The lids were opened slightly after approximately 2 weeks, and the soil was watered every 3 weeks and kept moist.
The evaluation was effected by estimating, per vessel, the soil surface area which had in the meantime been covered by growth, predominantly haircup moss growth. 0% means an efficacy which corresponds to that of the untreated control, while an efficacy of 100% means that no moss growth was discernible.

`CCCCCCCCCC[N+](C)(C)CCCCCCCCCC.[Cl-]` [DDAC-C10, Didecyldimethylammonium chloride with alkyl chain length C10] was tested, and the Efficacy % was 100%.
